In patent US20090048112A1, “Novel Herbicides” (SYNGENTA LIMITED, priority 2005, published 2009):

Test system: Monocotyledonous and dicotyledonous test plants
Assay: Example B3: herbicidal action prior to emergence (pre-emergence), 96-cell seed trays, 1000 g/ha
Format: in vivo
Parameters: key: 0 is no damage to plant; 5 is total damage to plant
Conditions: 9 days after application; for AGSTE herbicidal effect (visual assessment, scale 0-5): Agrostis tenius (Colonial bentgrass); for AMARE herbicidal effect (visual assessment, scale 0-5): Amaranthus retroflexus (redroot pigweed); for DIGSA herbicidal effect (visual assessment, scale 0-5): Digitaria sanguinalis (hairy finger-grass); for POATR herbicidal effect (visual assessment, scale 0-5): Poa trivialis (rough blue grass); for SETIT herbicidal effect (visual assessment, scale 0-5): Setaria italica (foxtail millet)
Method: Monocotyledonous and dicotyledonous test plants were sown in sterilised standard soil in seed trays each with 96 cells. The seed trays were stored under controlled conditions in a climatic chamber for one day (cultivation at 23° C. during the day and 17° C. at night; 13 hours of light; 50-60% humidity). The chemicals were applied to the soil surface. The application was carried out with an aqueous suspension of the test substances, prepared as a formulation in water with 10% dimethyl sulfoxide (CAS RN 67-68-5), to achieve a field equivalent of 1000 l/ha. The application rate of the test substances was 1000 g/ha. The plants were grown on in the climatic chamber for 9 days (cultivation at 24° C. during the day and 19° C. at night; 13 hours of light; 50-60% humidity). A visual assessment of the herbicidal effect was made at 9 days after application. The following scale was used for assessment: 0, 1, 2, 3, 4 and 5 (where 0 is no damage to plant and 5 is total damage to plant).

Row | SMILES | AGSTE herbicidal effect (visual assessment, scale 0-5) | AMARE herbicidal effect (visual assessment, scale 0-5) | DIGSA herbicidal effect (visual assessment, scale 0-5) | POATR herbicidal effect (visual assessment, scale 0-5) | SETIT herbicidal effect (visual assessment, scale 0-5)
1 | Cn1nc(C(F)(F)F)c(C[S+]([O-])c2ncc(Cl)s2)c1OC(CF)CF (racemic) [Compound 1.113] | 5 | 5 | 5 | 4 | 5
2 | Cn1nc(C(F)(F)F)c(C[S+]([O-])c2ncc(Cl)s2)c1OCC(F)F (racemic) [Compound 1.116] | 5 | 5 | 5 | 5 | 5
3 | CC(Oc1c(CS(=O)(=O)c2ncc(Cl)s2)c(C(F)(F)F)nn1C)C(F)(F)F (racemic) [Compound 1.130] | 5 | 5 | 5 | 5 | 5
4 | CC(CF)Oc1c(CS(=O)(=O)c2ncc(Cl)s2)c(C(F)(F)F)nn1C (racemic) [Compound 1.133] | 5 | 5 | 5 | 5 | 5
5 | CSc1c(C[S+]([O-])c2ncc(Cl)s2)c(C(F)(F)F)nn1C (racemic) [Compound No. 1.089] | 5 | 5 | 5 | 5 | 5
6 | Cn1nc(C(F)(F)F)c(C[S+]([O-])c2ncc(Cl)s2)c1S(C)(=O)=O (racemic) [Compound No. 1.092] | 5 | 3 | 5 | 3 | 4
7 | CC(Oc1c(CSc2ncc(Cl)s2)c(C(F)(F)F)nn1C)C(F)(F)F (racemic) [Compound No. 1.126] | 4 | 4 | 5 | 1 | 4
8 | Cn1nc(C(F)(F)F)c(C[S+]([O-])c2ncc(Cl)s2)c1[S+](C)[O-] (single isomer, unassigned) [Compound No. 1.090] | 5 | 3 | 5 | 4 | 5
9 | Cn1nc(C(F)(F)F)c(C[S+]([O-])c2ncc(Cl)s2)c1[S+](C)[O-] (single isomer, unassigned) [Compound No. 1.091] | 5 | 4 | 4 | 0 | 4
10 | Cc1cnc(S(=O)(=O)Cc2c(C(F)(F)F)nn(C)c2OCC(F)(F)F)s1 [Compound 1.075] | 5 | 1 | 0 | 5 | 5
11 | Cn1nc(C(F)(F)F)c(CS(=O)(=O)c2ncc(Cl)s2)c1OCCCF [Compound 1.104] | 5 | 5 | 5 | 5 | 5
12 | Cn1cc(CS(=O)(=O)c2ncc(Cl)s2)c(C(F)(F)F)n1 [Compound 1.107] | 0 | 3 | 5 | 0 | 3
13 | Cn1nc(C(F)(F)F)c(CS(=O)(=O)c2ncc(Cl)s2)c1OC(CF)CF [Compound 1.114] | 5 | 5 | 5 | 5 | 5
14 | Cn1nc(C(F)(F)F)c(CS(=O)(=O)c2ncc(Cl)s2)c1OCC(F)F [Compound 1.117] | 5 | 5 | 5 | 5 | 5
15 | Cn1nc(C(F)(F)F)c(CS(=O)(=O)c2ncc(Cl)s2)c1OCC(F)(F)C(F)F [Compound 1.120] | 5 | 5 | 5 | 5 | 5
16 | C=C(F)COc1c(CS(=O)(=O)c2ncc(Cl)s2)c(C(F)(F)F)nn1C [Compound 1.125] | 5 | 5 | 5 | 5 | 5
17 | CCSc1c(CS(=O)(=O)c2ncc(Cl)s2)c(C(F)(F)F)nn1C [Compound No. 1.077, 5-chloro-2-(5-ethylsulfanyl-1-methyl-3-trifluoromethyl-1H-pyrazole-4-ylmethanesulfonyl)-thiazole] | 5 | 3 | 5 | 5 | 4
18 | CCS(=O)(=O)c1c(CS(=O)(=O)c2ncc(Cl)s2)c(C(F)(F)F)nn1C [Compound No. 1.081] | 5 | 5 | 0 | 0 | 4
19 | Cn1nc(C(F)(F)F)c(CS(=O)(=O)c2ncc(Cl)s2)c1S(C)(=O)=O [Compound No. 1.093] | 5 | 4 | 5 | 5 | 3
20 | Cn1nc(C(F)(F)F)c(CSc2ncc(Cl)s2)c1OCCCF [Compound No. 1.102] | 5 | 2 | 4 | 0 | 2
21 | Cn1cc(C(F)S(=O)(=O)c2ncc(Cl)s2)c(C(F)(F)F)n1 (stereo not shown) [Compound No. 1.110, 5-chloro-2-[fluoro-(1-methyl-3-trifluoromethyl-1H-pyrazol-4-yl)-methanesulfonyl]-thiazole] | 0 | 4 | 4 | 4 | 5
22 | Cn1nc(C(F)(F)F)c(CSc2ncc(Cl)s2)c1OC(CF)CF [Compound No. 1.112] | 5 | 4 | 5 | 0 | 0
23 | Cn1nc(C(F)(F)F)c(CSc2ncc(Cl)s2)c1OCC(F)F [Compound No. 1.115] | 5 | 3 | 5 | 0 | 3
